According to patent US4048299A, “Anticaries confectionaries and oral health products” (William Wrigley, Jr. Co., priority 1970, dated 1977):

Assays:
Lactobacillus casei = assay: Acid production inhibition, broth-tube technique; details: single agent
Excerpt: (§3) The data was compiled through well-known broth tube analysis techniques.
(a)Measured by broth-tube technique.

[1] = In vivo caries evaluation, laboratory animals (summary); details: one percent level in diet
Excerpt: (§1) Standard laboratory techniques were used to complie the data presented. In each case the aldehyde was incorporated into each specimen's food in a one percent, by weight, quantity, over a period of several weeks. In all cases, caries reduction was noted.
(§2) The aldehydes tested in vivo were pyruvaldehyde, d,1-glyceraldehyde, crystalline dimer, glycolaldehyde, octanaldehyde, nonanaldehyde, decanaldehyde, undecylenic aldehyde, and lauric aldehyde. The polyaldehydes tested were dialdehyde starch, dialdehyde starch 50 percent oxidized, dialdehyde starch 90 percent oxidized, and dialdehyde galactomannan gum.

[2] = In vivo caries evaluation, Osborne-Mendel strain 1 rat; design: species or system rat (Osborne-Mendel strain 1); details: Table I, 90 days
Excerpt: as §1, §2
^(a) Agents were incorporated in the diet at a 1 percent level.

Streptococcus sp. FA-1 = assay: Acid production inhibition, broth-tube technique; details: single agent
Excerpt: as §3
(a)Measured by broth-tube technique.

[3] = system: Lactobacillus casei ATCC 4646; assay: Acid production inhibition by aldehydes in product vehicles, broth-tube technique; type: cell-based; details: 1 to 5 percent aldehyde
Streptococcus spp. KI-R [4] = assay: as above; type: cell-based; details: 1 to 5 percent aldehyde
[5] = system: Mixed human oral microorganisms; assay: as above; type: cell-based; details: 1 to 5 percent aldehyde
Streptococcus spp. KI-R [6] = assay: Growth inhibition by aldehydes in product vehicles, pour-plate technique; type: cell-based; details: 1 to 5 percent aldehyde
Summary of the method: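 Aldehydes (1 to 5 percent by weight) were formulated into syrups, candies, mouthwash, toothpaste or toothpowder, added directly or as aqueous extracts to medium without a carbon source mixed 1:1 with filter-sterilized human saliva. Sugar came from the product or added sucrose. Growth over up to 24 hours was read by pour-plate count.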

[7] = Student's test, 95 percent confidence limit
[8] = in compressed candy tablet, 2 h incubation
[9] = in compressed candy tablet, 5 h incubation
[10] = in compressed candy tablet, 24 h incubation
[11] = in dextrose syrup, 2 h incubation
[12] = in dextrose syrup, 5 h incubation
[13] = in dextrose syrup, 24 h incubation
[14] = in sucrose syrup, 2 h incubation
[15] = in sucrose syrup, 5 h incubation
[16] = in sucrose syrup, 24 h incubation
[17] = in tooth powder (aqueous extract), 2 h incubation
[18] = in tooth powder (aqueous extract), 5 h incubation
[19] = in tooth powder (aqueous extract), 24 h incubation
[20] = in toothpaste (aqueous extract), 2 h incubation
[21] = in toothpaste (aqueous extract), 5 h incubation
[22] = in toothpaste (aqueous extract), 24 h incubation

Which results are given for `CC(=O)C=O` [Pyruvaldehyde]?
Acid Production Inhibition (Lactobacillus casei; 0.005 percent): 24%; Acid Production Inhibition (Lactobacillus casei; 0.0075 percent): 57%; Anticaries effect in laboratory animals [1]: significant anticaries effects; Caries Score, Mean Incidence ([2]; 1 percent in diet, RCD control 23.3 (pyruvaldehyde test), 12.85 (glycolaldehyde test)): 8.6; Caries Score, Mean Extent ([2]; 1 percent in diet, RCD control 64.8 (pyruvaldehyde test), 35.45 (glycolaldehyde test)): 21.7; Caries Extent Reduction, statistical evaluation [2, 7]: Significant; Caries Incidence Reduction, statistical evaluation [2, 7]: Significant; Acid Production Inhibition (Streptococcus sp. FA-1; 0.001 percent): 10%; Acid Production Inhibition (Streptococcus sp. FA-1; 0.002 percent): 35%; Acid Production Inhibition [3, 8]: 0 Per Cent; Acid Production Inhibition [3, 9]: 0 Per Cent; Acid Production Inhibition [3, 10]: 75 Per Cent; Acid Production Inhibition [3, 11]: 52 Per Cent; Acid Production Inhibition [3, 12]: 33 Per Cent; Acid Production Inhibition [3, 13]: 88 Per Cent; Acid Production Inhibition ([3]; in hard candy, 2 h incubation): 0 Per Cent; Acid Production Inhibition ([3]; in hard candy, 5 h incubation): 22 Per Cent; Acid Production Inhibition ([3]; in hard candy, 24 h incubation): 90 Per Cent; Acid Production Inhibition [3, 14]: 0 Per cent; Acid Production Inhibition [3, 15]: 20.0 Per cent; Acid Production Inhibition [3, 16]: 89.6 Per cent; Acid Production Inhibition [3, 17]: 0 Per cent; Acid Production Inhibition [3, 18]: 0 Per cent; Acid Production Inhibition [3, 19]: 71 Per cent; Acid Production Inhibition [3, 20]: 0 Per cent; Acid Production Inhibition [3, 21]: 0 Per cent; Acid Production Inhibition [3, 22]: 0 Per cent; Acid Production Inhibition (Streptococcus spp. KI-R [4]; [8]): 0 Per Cent; Acid Production Inhibition (Streptococcus spp. KI-R [4]; [9]): 30 Per Cent; Acid Production Inhibition (Streptococcus spp. KI-R [4]; [10]): 83 Per Cent; Acid Production Inhibition (Streptococcus spp. KI-R [4]; [11]): 57 Per Cent; Acid Production Inhibition (Streptococcus spp. KI-R [4]; [12]): 86 Per Cent; Acid Production Inhibition (Streptococcus spp. KI-R [4]; [13]): 82 Per Cent; Acid Production Inhibition (Streptococcus spp. KI-R [4]; in hard candy, 2 h incubation): 40 Per Cent; Acid Production Inhibition (Streptococcus spp. KI-R [4]; in hard candy, 5 h incubation): 87 Per Cent; Acid Production Inhibition (Streptococcus spp. KI-R [4]; in hard candy, 24 h incubation): 86 Per Cent; Acid Production Inhibition (Streptococcus spp. KI-R [4]; in mouthwash, 2 h incubation): 0 Per cent; Acid Production Inhibition (Streptococcus spp. KI-R [4]; in mouthwash, 5 h incubation): 0 Per cent; Acid Production Inhibition (Streptococcus spp. KI-R [4]; in mouthwash, 24 h incubation): 86 Per cent; Acid Production Inhibition (Streptococcus spp. KI-R [4]; [14]): 37.5 Per cent; Acid Production Inhibition (Streptococcus spp. KI-R [4]; [15]): 82.3 Per cent; Acid Production Inhibition (Streptococcus spp. KI-R [4]; [16]): 86.4 Per cent; Acid Production Inhibition (Streptococcus spp. KI-R [4]; [17]): 0 Per cent; Acid Production Inhibition (Streptococcus spp. KI-R [4]; [18]): 0 Per cent; Acid Production Inhibition (Streptococcus spp. KI-R [4]; [19]): 0 Per cent; Acid Production Inhibition (Streptococcus spp. KI-R [4]; [20]): 0 Per cent; Acid Production Inhibition (Streptococcus spp. KI-R [4]; [21]): 0 Per cent; Acid Production Inhibition (Streptococcus spp. KI-R [4]; [22]): 0 Per cent; Acid Production Inhibition [5, 8]: 0 Per Cent; Acid Production Inhibition [5, 9]: 89 Per Cent; Acid Production Inhibition [5, 10]: 78 Per Cent; Acid Production Inhibition [5, 11]: 15 Per Cent; Acid Production Inhibition [5, 12]: 89 Per Cent; Acid Production Inhibition [5, 13]: 83 Per Cent; Acid Production Inhibition ([5]; in hard candy, 2 h incubation): 20 Per Cent; Acid Production Inhibition ([5]; in hard candy, 5 h incubation): 93 Per Cent; Acid Production Inhibition ([5]; in hard candy, 24 h incubation): 84 Per Cent; Acid Production Inhibition ([5]; in mouthwash, 2 h incubation): 0 Per cent; Acid Production Inhibition ([5]; in mouthwash, 5 h incubation): 94 Per cent; Acid Production Inhibition ([5]; in mouthwash, 24 h incubation): 87 Per cent; Acid Production Inhibition [5, 14]: 77.8 Per cent; Acid Production Inhibition [5, 15]: 92.1 Per cent; Acid Production Inhibition [5, 16]: 91.8 Per cent; Acid Production Inhibition [5, 17]: 0 Per cent; Acid Production Inhibition [5, 18]: 86 Per cent; Acid Production Inhibition [5, 19]: 80 Per cent; Acid Production Inhibition [5, 20]: 0 Per cent; Acid Production Inhibition [5, 21]: 0 Per cent; Acid Production Inhibition [5, 22]: 0 Per cent; Growth Inhibition (Streptococcus spp. KI-R [6]; [8]): N.S.; Growth Inhibition (Streptococcus spp. KI-R [6]; [9]): N.S.; Growth Inhibition (Streptococcus spp. KI-R [6]; [10]): N.S.; Growth Inhibition (Streptococcus spp. KI-R [6]; [11]): 100 Per Cent; Growth Inhibition (Streptococcus spp. KI-R [6]; [12]): 100 Per Cent; Growth Inhibition (Streptococcus spp. KI-R [6]; [13]): 100 Per Cent; Growth Inhibition (Streptococcus spp. KI-R [6]; in hard candy, 2 h incubation): > 99.99 Per Cent; Growth Inhibition (Streptococcus spp. KI-R [6]; in hard candy, 5 h incubation): > 99.99 Per Cent; Growth Inhibition (Streptococcus spp. KI-R [6]; in hard candy, 24 h incubation): 100 Per Cent; Growth Inhibition (Streptococcus spp. KI-R [6]; in mouthwash, 2 h incubation): > 99.99 Per cent; Growth Inhibition (Streptococcus spp. KI-R [6]; in mouthwash, 5 h incubation): > 99.99 Per cent; Growth Inhibition (Streptococcus spp. KI-R [6]; in mouthwash, 24 h incubation): 100 Per cent; Growth Inhibition (Streptococcus spp. KI-R [6]; [14]): > 99.9 Per cent; Growth Inhibition (Streptococcus spp. KI-R [6]; [15]): > 99.99 Per cent; Growth Inhibition (Streptococcus spp. KI-R [6]; [16]): 100 Per cent; Growth Inhibition (Streptococcus spp. KI-R [6]; [17]): 100 Per cent; Growth Inhibition (Streptococcus spp. KI-R [6]; [18]): 100 Per cent; Growth Inhibition (Streptococcus spp. KI-R [6]; [19]): 100 Per cent; Growth Inhibition (Streptococcus spp. KI-R [6]; [20]): N.S.; Growth Inhibition (Streptococcus spp. KI-R [6]; [21]): N.S.; Growth Inhibition (Streptococcus spp. KI-R [6]; [22]): N.S.
